Measured values from patent US20020114804A1, “A METHOD OF TREATING INFECTION OF SUTURES AND PROSTHETIC DEVICES” (priority 1996, published 2002).

What was measured:
[1] = system: PMNs; test: PMN migration through fibrin gels in Boyden-type chemotaxis chambers; format: cell-based, human
Method: (§1) Becton-Dickinson cell culture inserts (pore sizes 3 or 8 μm: Franklin Lakes, N.J.) were overlaid with the following proteins:
Fibrin gels: 1 Unit of thrombin (a gift from Dr. John Fenton, Albany Medical College, Albany, N.Y.), in 5 μl of PBS was added first to each insert. 0.1 ml phosphate buffered saline supplemented with Ca^2+ and Mg^2+ (PBS) containing 100 μg commercial grade fibrinogen (Calbiochem. Inc., San Diego, Calif.) or purified fibrinogen [a gift from Dr. Jeffery Weitz, (MacMaster University, Hamilton, On.)] was then placed into each 8.2 mm diameter insert on top of the thrombin. The mixture was incubated at 37° C. for 5 min to allow fibrin gel formation (determined by visual inspection). 1 Unit PPACK (Calbiochem Inc., San Diego, Calif.; 10^−5 M final concentration), in 100 μl medium was added to each insert to inhibit thrombin, and gels were washed with 250 μl PBS to remove inactivated thrombin. The fibrin gels formed were about 1 mm thick as measured under a dissecting microscope.
PMNs were prepared from fresh heparinized blood from healthy adult volunteers by sedimentation on Ficoll-Hypaque gradients. Contaminating red blood cells were removed by hypotonic lysis, as described (7). The purity of PMN isolated by this method is >95% as determined by Wright-Giemsa staining (7). 10^6 PMNs in 250 μl of PBS supplemented with 5.5 mM glucose and 0.1% human serum albumin (PBSG-HSA), were placed in the upper compartment of each insert and incubated for 0-6 hrs at 37° C. in a humidified atmosphere containing 95% air/5% CO2. At the times and concentrations specified, chemoattractants/cytokines were added to the top or bottom compartment in 250 μl of PBSG-HSA. At the end of the incubation, the chambers were shaken to dislodge PMNs from the lower surface of the inserts. The medium in each lower compartment was collected and its content of PMNs was determined using either a Coulter Counter or a hemocytometer. Both methods gave similar results. Counts are expressed as the average number of PMNs that migrated into the lower compartment. Unless otherwise indicated, all values reported are the average of six data points from at least 3 independent experiments.

[2] = system: PMNs; test: PMN migration through filters coated with fibrinogen or fibronectin; format: cell-based, human
Method: as §1
Fibrinogen or fibronectin: 0.1 ml of PBS containing 100 μg/ml fibrinogen or fibronectin (New York Blood Center, New York, N.Y.), was placed into each insert (pore size 3 μm). Inserts were incubated at 37° C. for 60 min and washed with 250 μl of PBS. Filters coated with fibrinogen or fibronectin were diffusely fluorescent as visualized by epifluorescent microscopy when incubated with the corresponding antibody [fluorescein-labeled anti-fibrinogen, or anti-fibronectin monoclonal antibodies (Cappel, Malvern, Pa.)], while uncoated filters, or filters incubated with fluorescein-labeled antibody of the opposite specificity, were not.
PMNs were prepared from fresh heparinized blood from healthy adult volunteers by sedimentation on Ficoll-Hypaque gradients. Contaminating red blood cells were removed by hypotonic lysis, as described (7). The purity of PMN isolated by this method is >95% as determined by Wright-Giemsa staining (7). […] The medium in each lower compartment was collected and its content of PMNs was determined using either a Coulter Counter or a hemocytometer. […] Counts are expressed as the average number of PMNs that migrated into the lower compartment. […]

CCCCC/C=C\C[C@@H](O)/C=C/C=C/C=C\[C@@H](O)CCCC(=O)O [LTB4, leukotriene B4]
More PMNs migrated through fibrin in response to LTB4 than to IL-8 [1]: 25-50% | PMN migration through fibrin gels at supra-optimal concentrations ([1]; IL-8 at >10^−7 M, supra-optimal LTB4): no indication of PMN desensitization | PMN migration through fibrin gels (in words) ([1]; chemoattractant in lower compartment, zymosan-activated human plasma 2-10%): migrated | PMN migration through fibrin gels without gradient ([1]; chemoattractant in upper compartment, or equal concentrations in upper and lower compartments): Few PMNs migrated | Concentration giving maximal PMN migration through fibrin gels ([1]; in bottom compartment, 6 hrs): 20 nM | PMNs that migrated through fibrin gels within 2 hrs ([1]; optimal concentration, 2 hrs): Ten | PMN migration through filters with adsorbed fibrinogen or fibronectin [2]: promoted PMN migration
